Laboratory results published in PubChem BioAssay AID1963985 (Molecular Pharmacology Branch, DTP, NCI, 2024).

Test system: 252836-082-R-J2-PDC tumor spheroids, viability
Test: Anticancer human tumor 252836-082-R-J2-PDC patient-derived head and neck squamous cell carcinoma cell line growth inhibition [PI3K]
Conditions: spheroids with HUVEC and MSC; for IC50: curve of first compound; for viability, T/C: stronger effect = lower value
How it was run: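 Tumor cells grown as multi-cell spheroids with HUVEC endothelial cells and MSC fibroblast-like stroma were treated with targeted agents combined with inavolisib, alpelisib, duvelisib or copanlisib. Doses fell in half-log steps from near clinical Cmax, else from 10 microM. Viability was measured.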
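Further: spheroids exposed to agents for seven days before readout.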
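Wherever viability, T/C is given: percent of vehicle DMSO control viability so 100% = untreated growth.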

C#Cc1c(F)ccc2cc(O)cc(-c3ncc4c(N5CC6CCC(C5)N6)nc(OCC56CCCN5CC(F)C6)nc4c3F)c12 (configuration not stated) + Cc1nc(NC(=O)N2CCCC2C(N)=O)sc1-c1ccnc(C(C)(C)C(F)(F)F)c1
IC50 (second compound 0.0316 µM): > 10 µM | IC50 (second compound 0.1 µM): > 10 µM | IC50 (second compound 0.316 µM): > 10 µM | IC50 (second compound 1 µM): 4.45 µM | IC50 (second compound 3.16 µM): < 0.0316 µM | IC50 (second compound 10 µM): < 0.0316 µM | viability, T/C (second compound 0.0316 µM, first compound 0.0316 µM): 96.4% | viability, T/C (second compound 0.0316 µM, first compound 0.1 µM): 82.3% | viability, T/C (second compound 0.0316 µM, first compound 0.316 µM): 98.8% | viability, T/C (second compound 0.0316 µM, first compound 1 µM): 76.5% | viability, T/C (second compound 0.0316 µM, first compound 3.16 µM): 72.2% | viability, T/C (second compound 0.0316 µM, first compound 10 µM): 69.2% | viability, T/C (second compound 0.1 µM, first compound 0.0316 µM): 92.4% | viability, T/C (second compound 0.1 µM, first compound 0.1 µM): 78.4% | viability, T/C (second compound 0.1 µM, first compound 0.316 µM): 76.9% | viability, T/C (second compound 0.1 µM, first compound 1 µM): 78% | viability, T/C (second compound 0.1 µM, first compound 3.16 µM): 63.6% | viability, T/C (second compound 0.1 µM, first compound 10 µM): 67.4% | viability, T/C (second compound 0.316 µM, first compound 0.0316 µM): 70.2% | viability, T/C (second compound 0.316 µM, first compound 0.1 µM): 64.7% | viability, T/C (second compound 0.316 µM, first compound 0.316 µM): 71.1% | viability, T/C (second compound 0.316 µM, first compound 1 µM): 58.4% | viability, T/C (second compound 0.316 µM, first compound 3.16 µM): 60.8% | viability, T/C (second compound 0.316 µM, first compound 10 µM): 53.5% | viability, T/C (second compound 1 µM, first compound 0.0316 µM): 54.4% | viability, T/C (second compound 1 µM, first compound 0.1 µM): 54.9% | viability, T/C (second compound 1 µM, first compound 0.316 µM): 53.9% | viability, T/C (second compound 1 µM, first compound 1 µM): 60.4% | viability, T/C (second compound 1 µM, first compound 3.16 µM): 54.9% | viability, T/C (second compound 1 µM, first compound 10 µM): 37.7% | viability, T/C (second compound 3.16 µM, first compound 0.0316 µM): 41.9% | viability, T/C (second compound 3.16 µM, first compound 0.1 µM): 40.6% | viability, T/C (second compound 3.16 µM, first compound 0.316 µM): 44.5% | viability, T/C (second compound 3.16 µM, first compound 1 µM): 40.9% | viability, T/C (second compound 3.16 µM, first compound 3.16 µM): 39.7% | viability, T/C (second compound 3.16 µM, first compound 10 µM): 22% | viability, T/C (second compound 10 µM, first compound 0.0316 µM): 36.3% | viability, T/C (second compound 10 µM, first compound 0.1 µM): 35.2% | viability, T/C (second compound 10 µM, first compound 0.316 µM): 31.5% | viability, T/C (second compound 10 µM, first compound 1 µM): 25% | viability, T/C (second compound 10 µM, first compound 3.16 µM): 25.7% | viability, T/C (second compound 10 µM, first compound 10 µM): 9.29%
